{"source": "ChEMBL document CHEMBL5725428", "about": "“15-aryl prostaglandins as EP4 agonists, and methods of use thereof” (2017)", "key": {"[1]": {"molecular_target": "Prostaglandin E2 receptor EP4 subtype (Homo sapiens, UniProt P35408)", "sequence (P35408 whole entry)": "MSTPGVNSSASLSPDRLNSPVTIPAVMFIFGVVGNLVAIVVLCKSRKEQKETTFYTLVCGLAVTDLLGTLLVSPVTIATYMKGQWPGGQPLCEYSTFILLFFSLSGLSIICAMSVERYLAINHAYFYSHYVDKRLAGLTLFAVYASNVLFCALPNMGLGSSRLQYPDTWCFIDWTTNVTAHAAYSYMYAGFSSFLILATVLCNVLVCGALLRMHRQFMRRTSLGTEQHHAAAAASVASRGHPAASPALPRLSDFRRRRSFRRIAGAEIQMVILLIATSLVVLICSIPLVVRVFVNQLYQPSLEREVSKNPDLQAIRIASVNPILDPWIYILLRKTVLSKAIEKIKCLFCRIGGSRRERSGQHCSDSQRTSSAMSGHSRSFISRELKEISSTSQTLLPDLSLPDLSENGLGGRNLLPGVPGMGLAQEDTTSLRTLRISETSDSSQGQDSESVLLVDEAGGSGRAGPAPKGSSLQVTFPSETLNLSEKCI", "test": "(§1) cAMP Assay: A 384-well drug plate was prepared to contain 6 test compounds, PGE2 and cAMP in 16 serial dilutions in triplicate, using a Biomek station. HEK-EBNA cells expressing a target PG receptor subtype (EP2 or EP4) were suspended in a stimulation buffer (HBSS, 0.1% BSA, 0.5 mM IBMX and 5 mM HEPES, pH 7.4) in a density of 10^4 cells/5 microliters. The reaction was initiated by mixing 5 microliters drug dilutions with 5 microliters of HEK-EBNA cells in a well, carried out for 30 min at room temperature, and followed by the addition of 5 microliters anti-cAMP acceptor beads in the control buffer with Tween-20 (25 mM NaCl, 0.03% Tween-20, 5 mM HEPES, pH 7.4). After 30 min in the dark at room temperature, the mixtures were incubated with 15 microliters biotinylated-cAMP/streptavidin donor beads in Lysis/Detection buffer (0.1% BSA, 0.3% Tween-20 and 5 mM HEPES, pH 7.4) for 45 min at room temperature. Fluorescence changes were read using a Fusion-alpha microplate reader.", "format": "cell-based"}, "[2]": {"molecular_target": "Prostaglandin E2 receptor EP2 subtype (Homo sapiens, UniProt P43116)", "sequence (P43116 whole entry)": "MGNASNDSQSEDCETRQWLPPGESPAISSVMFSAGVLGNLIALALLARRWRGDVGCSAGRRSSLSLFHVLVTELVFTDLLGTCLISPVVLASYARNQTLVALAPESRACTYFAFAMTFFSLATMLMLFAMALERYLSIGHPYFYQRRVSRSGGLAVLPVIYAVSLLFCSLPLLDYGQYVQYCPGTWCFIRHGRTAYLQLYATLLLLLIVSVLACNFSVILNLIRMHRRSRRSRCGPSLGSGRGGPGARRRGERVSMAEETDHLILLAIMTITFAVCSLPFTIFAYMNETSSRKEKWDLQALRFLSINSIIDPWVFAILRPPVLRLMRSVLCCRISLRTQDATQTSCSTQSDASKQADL", "test": "as §1", "format": "cell-based"}}}
{"smiles": "Cc1cc(Cl)ccc1-c1cc(C(O)/C=C/[C@H]2CCC(=O)N2CCCc2ccc(C(=O)O)cc2)ccc1F", "note": "(single isomer, unassigned)", "values": [{"measurement": "Ki", "setting": "[1]", "result": 1080, "unit": "nM"}, {"measurement": "Ki", "setting": "[2]", "result": 7.49, "unit": "µM"}]}
